Data on 20 compounds can be found in patent publication US10183949B2, “Pyrimidinone derivative having autotaxin-inhibitory activity” (The University of Tokyo, priority 2014, dated 2019).

Each structure is given as a SMILES string.

This test concerns the target T1, Human autotaxin enzyme (Homo sapiens, UniProt Q13822).
T1 construct: purchased R&D System
The test can be described thus: Evaluation of autotaxin inhibitor, 18:0 Lyso PC / choline assay (Test Example 2). The format is biochemical. To be noted: human autotaxin enzyme, 18:0 Lyso PC substrate, choline assay, room temperature 2 hours; read-out: Inhibitor activity (IC50). In a few lines: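 Inhibition derived from concentration-dependent curves, scaled between no-compound (0%) and no-enzyme (100%) wells. Choline generated from 18:0 Lyso PC (200 μM stock) by human enzyme over 2 h at room temperature (Tris-HCl pH 7.5, NaCl, MgCl2, Triton X-100) read as resorufin fluorescence, 531/598 nm, after choline oxidase-peroxidase coupling.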

With `O=C(O)c1cc(Cn2c(CCCC(F)(F)F)nc(-c3ccc(Cl)cc3)cc2=O)cs1` [Compound I-0292], the IC50 was in the range of 0.01 to 0.1 µM.

Turning to `O=C1CC(CNC(=O)Cn2c(CCCC(F)(F)F)nc(-c3ccc(C(F)(F)F)cc3)cc2=O)CN1` (centres unmarked) [Compound I-0336], the IC50 was 0.01 to 0.1 µM.

Consider `CCCCCc1nc(-c2ccc(Cl)cc2)cc(=O)n1CC(=O)NC(CO)Cc1ccc(F)cc1` (centres unmarked) [Compound I-0075], for which the 50% inhibitory concentration (IC50) is not below 1 µM.

For the compound `C[C@@H]1COC[C@H](C)N1C(=O)c1cccc(Cn2c(CCCC(F)(F)F)nc(-c3ccc(Cl)cc3)cc2=O)c1` [Compound I-0199], the IC50 is 0.01 to 0.1 µM.

Take `O=C(Cn1c(CCCC(F)(F)F)nc(-c2ccc(C(F)(F)F)cc2)cc1=O)N1CCC(O)(Cc2ccccc2)CC1` [Compound I-0369]: the concentration for half-maximal inhibition (IC50) lay in the range of 0.1 to 1 µM.

Take `CC(C)(C)C(=O)Nc1cc(Cl)ccc1-c1cc(=O)n(Cc2cccc(C(=O)N3CCC(O)CC3)c2)cn1` [Compound I-0489]: the 50% inhibitory concentration (IC50) lay within 0.01 to 0.1 µM.

As to `CC(C)(C)NC(=O)Cn1cnc(-c2ccc(Cl)cc2NC(=O)C(C)(C)C)cc1=O` [Compound I-0407], the IC50 lay in the range of 0.01 to 0.1 µM.

Turning to `Cc1nc(-c2ccc(Cl)cc2NC(=O)C2CC2)cc(=O)n1CC(=O)NCC1CCC(=O)N1` (centres unmarked) [Compound I-0450], the IC50 lay in the range of 0.01 to 0.1 µM.

Take `CCCCCc1nc(-c2ccc(Cl)cc2)cc(=O)n1CC(=O)NC(C(=O)O)C(C)C` (centres unmarked) [Compound I-0050]: the IC50 lay within 0.1 to 1 µM.

Consider `CS(=O)(=O)N1CCN(C(=O)Cn2c(CCCC(F)(F)F)nc(-c3ccc(C(F)(F)F)cc3)cc2=O)CC1` [Compound I-0359], for which the half-maximal inhibitory concentration (IC50) lay within 0.01 to 0.1 µM.

As for `N#CCNC(=O)c1cccc(Cn2c(CCCC(F)(F)F)nc(-c3ccc(Cl)cc3)cc2=O)c1` [Compound I-0164], the IC50 was in the range of 0.1 to 1 µM.

On to `CCCCCc1nc(-c2ccc(Cl)cc2)cc(=O)n1CC(=O)NCc1ccc(C(=O)O)cc1` [Compound I-0041], for which the 50% inhibitory concentration (IC50) was 0.01 to 0.1 µM.

As for `COC(=O)Nc1cc(Cl)ccc1-c1cc(=O)n(CC(=O)N2CCOCC2(C)C)c(C)n1` [Compound I-0285], the IC50 lay within 0.01 to 0.1 µM.

`CC(C)(O)CNC(=O)Cn1c(COCC(F)(F)F)nc(-c2ccc(Cl)cc2)cc1=O` [Compound I-0215]: the IC50 fell in the range of 0.01 to 0.1 µM.

With `CC(C)(C)OC(=O)Cn1c(CCCC(F)(F)F)nc(-c2ccc(Cl)cc2C=O)cc1=O` [Compound I-0296], the IC50 was in the range of 0.1 to 1 µM.

For the compound `CCCCCc1nc(-c2ccc(Cl)cc2)cc(=O)n1CC(=O)NCC(O)Cc1ccccc1` (centres unmarked) [Compound I-0088], the IC50 is 0.01 to 0.1 µM.

For `CC(C)(C)C(=O)Nc1cc(Cl)ccc1-c1cc(=O)n(Cc2cccc(C(=O)Nc3ccnc(O)c3)c2)cn1` [Compound I-0493], the IC50 was not below 1 µM.

For `CCCCCc1nc(-c2ccc(Cl)cc2)cc(=O)n1CC(=O)N1CCN(CC(=O)O)CC1` [Compound I-0048], the IC50 was less than 0.01 µM.

As for `Cc1nc(-c2ccc(Cl)cc2NC(=O)C2CC2)cc(=O)n1CC(=O)NC1(C)COC1` [Compound I-0419], the IC50 is 0.01 to 0.1 µM.

As for `O=C(NCC1(CO)CC1)c1cccc(Cn2c(CCCC(F)(F)F)nc(-c3ccc(Cl)cc3)cc2=O)c1` [Compound I-0175], the concentration for half-maximal inhibition (IC50) lay in the range of 0.1 to 1 µM.
